From patent publication US11464780B2, “Pyrazolopyrimidine derivative and use thereof” (Simcere Pharmaceutical Co. Ltd., priority 2018, dated 2022)
Like-named read-outs stand apart in the source and are kept apart here.

Tests used:
[1] = molecular target: T1, Ros-G2032R (Homo sapiens, UniProt P08922, G2032R); assay: Kinase inhibitory activity (33P-ATP filter binding, Reaction Biology Corp.); type: biochemical; conditions: read-out: The half maximal inhibitory concentration IC50 on the kinases, Ros-G2032R
T1 construct: purchased Reaction Biology Corp. (contract assay)
Procedure: (§1) The mixture was incubated at room temperature for 20 minutes. To the reaction mixture was added a certain concentration of ^33P-ATP to initiate the reaction, and then the mixture was incubated at room temperature for 120 minutes. The radioactivities of the reactants were determined by the method of filter binding. The final kinase activity was expressed as the ratio of the remaining kinase activity in the test sample to the kinase activity in the DMSO control group. The dose-effect curve was fitted by GraphPad software and the IC50 was calculated.

[2] = molecular target: T2, Ros1 (Homo sapiens, UniProt P08922); assay: as above; type: biochemical; conditions: read-out: The half maximal inhibitory concentration IC50 on the kinases, Ros1
T2 construct: purchased Reaction Biology Corp. (contract assay)
Procedure: as §1

[3] = molecular target: T3, TrkA (Homo sapiens, UniProt P04629); assay: as above; type: biochemical; conditions: read-out: The half maximal inhibitory concentration IC50 on the kinases, TrkA
T3 construct: purchased Reaction Biology Corp. (contract assay)
T3 sequence (P04629 33-796): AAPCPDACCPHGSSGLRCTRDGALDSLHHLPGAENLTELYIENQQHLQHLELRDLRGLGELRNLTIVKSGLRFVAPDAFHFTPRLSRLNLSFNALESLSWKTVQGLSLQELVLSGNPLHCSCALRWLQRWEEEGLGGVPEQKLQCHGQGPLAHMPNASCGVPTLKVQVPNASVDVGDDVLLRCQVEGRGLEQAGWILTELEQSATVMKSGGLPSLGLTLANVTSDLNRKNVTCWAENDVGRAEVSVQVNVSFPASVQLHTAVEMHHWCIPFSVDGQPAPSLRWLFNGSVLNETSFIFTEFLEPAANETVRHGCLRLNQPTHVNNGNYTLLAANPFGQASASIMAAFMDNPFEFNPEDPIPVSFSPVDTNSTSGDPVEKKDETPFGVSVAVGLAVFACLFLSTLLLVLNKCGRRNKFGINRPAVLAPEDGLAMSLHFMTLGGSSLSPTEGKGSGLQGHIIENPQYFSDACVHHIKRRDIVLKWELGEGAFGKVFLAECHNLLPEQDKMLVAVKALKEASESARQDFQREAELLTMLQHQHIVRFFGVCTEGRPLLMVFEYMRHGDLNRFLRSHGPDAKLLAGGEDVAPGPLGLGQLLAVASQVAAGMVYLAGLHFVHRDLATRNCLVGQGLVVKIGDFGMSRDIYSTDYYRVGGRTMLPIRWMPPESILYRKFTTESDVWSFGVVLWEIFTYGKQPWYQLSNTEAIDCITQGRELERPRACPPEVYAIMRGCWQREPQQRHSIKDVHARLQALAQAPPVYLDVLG
Procedure: as §1

[4] = molecular target: T4, TrkA-G595R (Homo sapiens, UniProt P04629, G595R); assay: as above; type: biochemical; conditions: read-out: The half maximal inhibitory concentration IC50 on the kinases, TrkA-G595R
T4 construct: purchased Reaction Biology Corp. (contract assay)
T4 sequence (P04629 33-796 G595R): as the sequence (P04629 33-796) above, with G563R counted along it
Procedure: as §1

[5] = molecular target: T5, TrkA-G667C (Homo sapiens, UniProt P04629, G667C); assay: as above; type: biochemical; conditions: read-out: The half maximal inhibitory concentration IC50 on the kinases, TrkA-G667C
T5 construct: purchased Reaction Biology Corp. (contract assay)
T5 sequence (P04629 33-796 G667C): as the sequence (P04629 33-796) above, with G635C counted along it
Procedure: as §1

[6] = molecular target: T6, TrkC (Homo sapiens, UniProt Q16288); assay: as above; type: biochemical; conditions: read-out: The half maximal inhibitory concentration IC50 on the kinases, TrkC
T6 construct: purchased Reaction Biology Corp. (contract assay)
Procedure: as §1

[7] = molecular target: T7, ALK (Homo sapiens, UniProt Q9UM73); assay: as above; type: biochemical; conditions: read-out: The half maximal inhibitory concentration IC50 on the kinases, ALK
T7 construct: purchased Reaction Biology Corp. (contract assay)
Procedure: The inhibitory activities of the compounds on TrkA, TrkC, ALK, Ros1 and other kinases were determined by Reaction Biology Corp. To reaction buffer (20 mM Hepes (pH 7.5), 10 mM MgCl2, 1 mM EGTA, 0.02% Brij35, 0.02 mg/mL BSA, 0.1 mM Na3VO4, 2 mM DTT, 1% DMSO) were sequentially added a certain concentration of substrate, coenzyme factor, kinase and test compound (10 concentrations, 3-fold serial dilutions, DMSO at a final concentration of […]), and the mixture was mixed evenly. The mixture was incubated at room temperature for 20 minutes. To the reaction mixture was added a certain concentration of ^33P-ATP to initiate the reaction, and then the mixture was incubated at room temperature for 120 minutes. The radioactivities of the reactants were determined by the method of filter binding. The final kinase activity was expressed as the ratio of the remaining kinase activity in the test sample to the kinase activity in the DMSO control group. The dose-effect curve was fitted by GraphPad software and the IC50 was calculated.

[8] = molecular target: T8, Ba/F3 LMNA-NTRK1-WT stably transfected cell line (Homo sapiens, UniProt P04629); assay: Cell proliferation inhibition (CellTiter-Glo); type: cell-based; conditions: 72 hours, read-out: The half maximal inhibitory concentration IC50 against cells, Ba/F3 LMNA-NTRK1-WT
T8 construct: fused on or other part: P02545 (Prelamin-A/C)
T8 sequence (P04629 whole entry, stated change not applied, the tested form may be a part): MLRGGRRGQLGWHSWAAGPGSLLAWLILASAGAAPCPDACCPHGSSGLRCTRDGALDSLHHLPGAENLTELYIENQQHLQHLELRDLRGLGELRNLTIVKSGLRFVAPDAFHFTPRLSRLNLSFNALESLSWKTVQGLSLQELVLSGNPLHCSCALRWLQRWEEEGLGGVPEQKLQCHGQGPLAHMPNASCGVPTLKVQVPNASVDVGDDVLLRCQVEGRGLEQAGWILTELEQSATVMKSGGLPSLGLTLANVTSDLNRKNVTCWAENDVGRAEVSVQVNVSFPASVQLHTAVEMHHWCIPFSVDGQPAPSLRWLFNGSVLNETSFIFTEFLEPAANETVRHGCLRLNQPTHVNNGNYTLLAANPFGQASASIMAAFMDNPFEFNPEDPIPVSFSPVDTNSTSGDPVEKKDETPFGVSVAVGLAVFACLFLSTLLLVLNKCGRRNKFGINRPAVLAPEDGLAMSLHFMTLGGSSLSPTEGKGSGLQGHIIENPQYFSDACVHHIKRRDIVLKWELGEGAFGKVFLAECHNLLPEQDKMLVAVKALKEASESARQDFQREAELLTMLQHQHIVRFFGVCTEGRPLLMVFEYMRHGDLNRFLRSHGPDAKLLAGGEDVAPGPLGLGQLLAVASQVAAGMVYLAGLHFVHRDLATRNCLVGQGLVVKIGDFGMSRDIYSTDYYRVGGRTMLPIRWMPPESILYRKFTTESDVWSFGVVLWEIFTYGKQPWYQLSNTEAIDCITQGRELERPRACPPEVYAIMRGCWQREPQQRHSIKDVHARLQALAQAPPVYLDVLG
Procedure: Adenosine Tri-Phosphate (ATP) is an energy carrier shared by various life activities in nature, and is the smallest unit of energy storage and transfer. The CellTiter-Glo™ cell viability detection kit uses luciferase as the detection substance, and luciferase requires the participation of ATP during the process of luminescence. CellTiter-Glo™ reagent is added to cell culture medium, and the luminescent intensity is measured. The luminescent signal is directly proportional to the amount of ATP in the system, and ATP is positively related to the number of living cells. Therefore, by using the CellTiter-Glo kit to detect ATP content, cell proliferation can be detected. In this assay, the cell line is Ba/F3 LMNA-NTRK1-WT stably transfected cell line, with 5000 cells/well.
IC50 Determination Process:
1. Cell Culture and Inoculation
a) the cells in the logarithmic growth phase were harvested, and counted with a platelet counter. Trypan blue exclusion method was used to detect cell viability to ensure the cell viability was no less than 90%.
b) the cell concentration was adjusted; 90 μL of cell suspension was added respectively into a 96-well plate.
c) the cells in the 96-well plates was cultured under conditions of 37° C., 5% CO2 and 95% humidity overnight.
2. Drug Dilution and Administration
a) 10-fold drug solutions were prepared, the highest concentration was 10 μM, 9 concentrations, 3-fold diluted (refer to Appendix I). 10 μL of each drug solution was added to each well of the 96-well plate seeded with the cells in triplicate.
b) the cells in the 96-well plate added with the drug were cultured under conditions of 37° C., 5% CO2 and 95% humidity for 72 hours, and then CTG (cell proliferation) was performed.
a) CellTiter-Glo™ reagent was thawed, and the cell plate was equilibrated at room temperature for 30 minutes.
b) CellTiter-Glo™ reagent of a same volume was added to each well;
c) the cell plate was shaken on an orbital shaker for 5 minutes to lyse the cells.
d) the cell plate was placed at room temperature for 20 minutes to stabilize the luminescent signal.
e) the luminescent intensity was read.
GraphPad Prism 5.0 software was used to analyze the data, nonlinear S-curve regression was used to fit the data to obtain dose-effect curve, and IC50 value was calculated therefrom.

[9] = molecular target: T9, Ba/F3 LMNA-NTRK1-G595R stably transfected cell line (Homo sapiens, UniProt P04629, G595R, cells depend on it); assay: Cell proliferation inhibition (CellTiter-Glo); type: cell-based; conditions: 72 hours, read-out: The half maximal inhibitory concentration IC50 against cells, Ba/F3 LMNA-NTRK1-G595R
T9 construct: fused on or other part: P02545 (Prelamin-A/C)
T9 sequence (P04629 whole entry G595R, the tested form may be a part): as the sequence (P04629 whole entry, stated change not applied, the tested form may be a part) above, with G595R counted along it

[10] = molecular target: T10, BaF3 ETV6-NTRK3-G623R stably transfected cell line (Homo sapiens, UniProt Q16288, G623R, cells depend on it); assay: Cell proliferation inhibition (CellTiter-Glo); type: cell-based; conditions: 72 hours, read-out: The half maximal inhibitory concentration IC50 against cells, BaF3 ETV6-NTRK3-G623R
T10 construct: fused on or other part: P41212 (Transcription factor ETV6)
T10 sequence (Q16288 whole entry G623R, the tested form may be a part): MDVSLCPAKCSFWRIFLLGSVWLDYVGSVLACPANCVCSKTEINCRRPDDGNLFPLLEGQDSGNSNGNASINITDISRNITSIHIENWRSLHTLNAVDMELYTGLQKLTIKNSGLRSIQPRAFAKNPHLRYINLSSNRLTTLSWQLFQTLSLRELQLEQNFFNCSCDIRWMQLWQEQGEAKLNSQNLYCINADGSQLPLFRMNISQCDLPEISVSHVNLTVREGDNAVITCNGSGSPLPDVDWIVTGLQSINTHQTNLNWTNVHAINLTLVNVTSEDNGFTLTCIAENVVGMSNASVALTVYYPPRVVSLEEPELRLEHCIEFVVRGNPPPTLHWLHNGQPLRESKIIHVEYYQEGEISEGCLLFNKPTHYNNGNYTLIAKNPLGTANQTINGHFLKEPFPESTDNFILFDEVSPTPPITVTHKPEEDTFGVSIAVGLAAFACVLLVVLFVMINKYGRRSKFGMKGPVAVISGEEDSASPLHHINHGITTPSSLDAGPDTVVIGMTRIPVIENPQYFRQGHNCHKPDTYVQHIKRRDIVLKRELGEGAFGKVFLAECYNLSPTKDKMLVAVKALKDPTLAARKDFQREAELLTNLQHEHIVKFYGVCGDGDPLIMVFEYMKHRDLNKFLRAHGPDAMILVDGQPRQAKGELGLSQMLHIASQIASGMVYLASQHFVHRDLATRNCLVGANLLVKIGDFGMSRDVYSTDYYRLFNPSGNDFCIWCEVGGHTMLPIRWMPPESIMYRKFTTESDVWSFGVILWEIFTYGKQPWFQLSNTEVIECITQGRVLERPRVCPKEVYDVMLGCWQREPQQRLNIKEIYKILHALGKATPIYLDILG

[11] = molecular target: T11, Ba/F3 SLC34A2-ROS1-WT stably transfected cell line (Homo sapiens, UniProt P08922); assay: Cell proliferation inhibition (CellTiter-Glo); type: cell-based; conditions: 72 hours, read-out: The half maximal inhibitory concentration IC50 against cells, Ba/F3 SLC34A2-ROS1-WT
T11 construct: fused on or other part: O95436 (Sodium-dependent phosphate transport protein 2B)
T11 sequence (P08922 whole entry, stated change not applied, the tested form may be a part): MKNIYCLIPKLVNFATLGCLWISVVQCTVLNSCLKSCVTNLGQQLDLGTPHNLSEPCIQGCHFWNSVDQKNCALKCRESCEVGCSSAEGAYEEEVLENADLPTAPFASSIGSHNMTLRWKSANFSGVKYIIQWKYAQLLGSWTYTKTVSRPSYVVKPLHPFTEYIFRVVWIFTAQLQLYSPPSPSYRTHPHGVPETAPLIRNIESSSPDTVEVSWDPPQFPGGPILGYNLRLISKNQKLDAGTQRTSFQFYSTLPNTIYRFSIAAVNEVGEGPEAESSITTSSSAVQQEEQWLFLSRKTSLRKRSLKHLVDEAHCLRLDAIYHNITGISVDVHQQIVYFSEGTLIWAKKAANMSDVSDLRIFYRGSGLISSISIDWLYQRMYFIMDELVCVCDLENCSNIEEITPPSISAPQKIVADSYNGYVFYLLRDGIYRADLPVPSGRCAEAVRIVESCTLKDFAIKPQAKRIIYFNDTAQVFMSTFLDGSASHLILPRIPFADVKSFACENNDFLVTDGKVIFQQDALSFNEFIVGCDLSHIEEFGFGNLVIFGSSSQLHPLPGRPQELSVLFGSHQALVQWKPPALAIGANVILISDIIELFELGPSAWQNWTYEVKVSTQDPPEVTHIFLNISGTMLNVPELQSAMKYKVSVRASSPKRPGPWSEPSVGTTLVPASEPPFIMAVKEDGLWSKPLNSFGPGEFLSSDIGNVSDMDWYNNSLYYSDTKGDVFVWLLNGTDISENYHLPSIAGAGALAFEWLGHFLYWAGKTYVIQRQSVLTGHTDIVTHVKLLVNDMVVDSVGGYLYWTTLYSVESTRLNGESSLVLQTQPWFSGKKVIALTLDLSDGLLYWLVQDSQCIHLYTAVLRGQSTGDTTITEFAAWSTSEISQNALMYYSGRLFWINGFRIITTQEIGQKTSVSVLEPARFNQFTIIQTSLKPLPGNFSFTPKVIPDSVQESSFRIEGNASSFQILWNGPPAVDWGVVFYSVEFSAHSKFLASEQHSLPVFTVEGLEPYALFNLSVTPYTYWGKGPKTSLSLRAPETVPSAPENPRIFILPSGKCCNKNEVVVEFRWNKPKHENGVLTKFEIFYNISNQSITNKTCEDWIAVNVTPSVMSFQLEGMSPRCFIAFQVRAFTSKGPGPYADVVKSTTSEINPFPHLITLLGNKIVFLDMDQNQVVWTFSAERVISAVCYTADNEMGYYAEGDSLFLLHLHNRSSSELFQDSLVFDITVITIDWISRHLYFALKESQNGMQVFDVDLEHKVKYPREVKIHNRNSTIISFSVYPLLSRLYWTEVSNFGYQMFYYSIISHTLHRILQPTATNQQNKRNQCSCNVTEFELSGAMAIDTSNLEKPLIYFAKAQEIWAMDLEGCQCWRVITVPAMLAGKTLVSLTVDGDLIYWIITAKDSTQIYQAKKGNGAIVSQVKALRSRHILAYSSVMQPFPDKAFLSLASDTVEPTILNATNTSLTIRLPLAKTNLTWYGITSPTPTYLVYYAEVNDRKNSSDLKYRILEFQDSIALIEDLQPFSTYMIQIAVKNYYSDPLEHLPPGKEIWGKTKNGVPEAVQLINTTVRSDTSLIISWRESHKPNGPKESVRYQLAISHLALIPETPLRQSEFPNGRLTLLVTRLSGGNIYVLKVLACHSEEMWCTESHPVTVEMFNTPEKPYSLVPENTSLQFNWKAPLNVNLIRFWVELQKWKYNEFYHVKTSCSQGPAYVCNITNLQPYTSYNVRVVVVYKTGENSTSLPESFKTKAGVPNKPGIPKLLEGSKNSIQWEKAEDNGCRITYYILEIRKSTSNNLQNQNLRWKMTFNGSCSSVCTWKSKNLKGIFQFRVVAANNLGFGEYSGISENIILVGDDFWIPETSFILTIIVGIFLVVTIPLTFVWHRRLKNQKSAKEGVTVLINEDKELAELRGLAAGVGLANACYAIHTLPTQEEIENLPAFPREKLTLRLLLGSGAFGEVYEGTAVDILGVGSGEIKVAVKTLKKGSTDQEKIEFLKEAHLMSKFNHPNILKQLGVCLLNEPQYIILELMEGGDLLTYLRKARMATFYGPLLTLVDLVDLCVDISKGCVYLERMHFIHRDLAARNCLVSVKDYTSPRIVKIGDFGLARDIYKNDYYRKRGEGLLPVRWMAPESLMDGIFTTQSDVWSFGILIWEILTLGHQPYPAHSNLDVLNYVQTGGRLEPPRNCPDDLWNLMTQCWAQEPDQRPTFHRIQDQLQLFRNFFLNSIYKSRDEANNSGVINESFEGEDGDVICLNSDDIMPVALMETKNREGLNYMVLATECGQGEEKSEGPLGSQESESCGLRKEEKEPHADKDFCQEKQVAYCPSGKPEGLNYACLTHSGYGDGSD

[12] = molecular target: T12, Ba/F3 SLC34A2-ROS1-G2032R stably transfected cell line (Homo sapiens, UniProt P08922, G2032R, cells depend on it); assay: Cell proliferation inhibition (CellTiter-Glo); type: cell-based; conditions: 72 hours, read-out: The half maximal inhibitory concentration IC50 against cells, Ba/F3 SLC34A2-ROS1-G2032R
T12 construct: fused on or other part: O95436 (Sodium-dependent phosphate transport protein 2B)
T12 sequence (P08922 whole entry G2032R, the tested form may be a part): as the sequence (P08922 whole entry, stated change not applied, the tested form may be a part) above, with G2032R counted along it

[13] = In vivo pharmacokinetic test in mice; design: species or system male CD-1 mice; conditions: for Vd / AUC(0-t) / half-life / bioavailability / Cmax / Tmax: male, CD-1, mouse, plasma; for Vd: read-out: Apparent volume of distribution Vd; for AUC(0-t): read-out: Area under the curve AUC0-last; for half-life: read-out: Half life T1/2 (converted); for bioavailability: PO dose of 10 mL/kg vs IV 3 mg/kg, read-out: Bioavailability F %; for Cmax: read-out: Peak concentration Cmax; for Tmax: read-out: Time of peak concentration Tmax
Procedure: Experimental object: male CD-1 mice aged 7-9 weeks were used as the experimental animals, the LC/MS/MS method was used to determine the drug concentrations in plasma at different time points after single intravenous (IV) and intragastric (PO) administration of the compounds, in vivo pharmacokinetic behaviors of the compounds of the present disclosure in mice were studied, and pharmacokinetic characteristics thereof were evaluated. Drug preparation: The compounds were prepared into clear solutions with 5% DMSO+10% solutol+85% water as solvent for administration in IV (intravenous) group and PO (intragastric). The dose of the compounds: IV dose of 3 mg/kg, and PO dose of […].

[14] = molecular target: T13, Ba/F3 LMNA-NTRK1-F589L stably transfected cell line (Homo sapiens, UniProt P04629, F589L, cells depend on it); assay: Cell proliferation inhibition (CellTiter-Glo); type: cell-based; conditions: 72 hours, read-out: The half maximal inhibitory concentration IC50 against cells, Ba/F3 LMNA-NTRK1-F589L
T13 construct: fused on or other part: P02545 (Prelamin-A/C)
T13 sequence (P04629 whole entry F589L, the tested form may be a part): as the sequence (P04629 whole entry, stated change not applied, the tested form may be a part) above, with F589L counted along it

Row | IC50 [1] | IC50 [2] | IC50 [3] | IC50 [4] | IC50 [5] | IC50 [6] | IC50 [7] | GI50 [8] | GI50 [9] | GI50 [10] | GI50 [11] | GI50 [12] | Apparent clearance Cl ([13]; IV dose of 3 mg/kg) | Vd ([13]; IV dose of 3 mg/kg) | AUC(0-t) ([13]; IV dose of 3 mg/kg) | half-life ([13]; IV dose of 3 mg/kg) | bioavailability [13] | AUC(0-t) ([13]; PO dose of 10 mL/kg) | Cmax ([13]; PO dose of 10 mL/kg) | Tmax ([13]; PO dose of 10 mL/kg) | Compound | also measured
1 | 2.65 nM | 0.35 nM | 13.1 nM | 10.7 nM | 26.4 nM | 0.09 nM | 19.4 nM | 5.73 nM | 9.1 nM | 5.6 nM | 17.9 nM | 259 nM | 12.4 mL/min/kg | 0.44 L/kg | 10.5 µM·h | 30 min | 85% | 29.4 µM·h | 17.2 µM | 22.8 min | C[C@H]1CNC(=O)c2cnn3ccc(nc23)N2OCC[C@@H]2c2cc(F)cnc2O1 [WX005B] | 
2 | 0.73 nM | 0.13 nM | 2.8 nM | 5.18 nM | 2.85 nM | 0.05 nM | 11.6 nM | 5.8 nM | 12.4 nM | 69.1 nM | 10.1 nM | 165 nM | 5.50 mL/min/kg | 0.47 L/kg | 22.1 µM·h | 52.8 min | 76% | 54.9 µM·h | 22.6 µM | 22.8 min | O=C1N[C@@H]2CCC[C@@H]2Oc2ncc(F)cc2[C@H]2CCON2c2ccn3ncc1c3n2 [WX007A] | 
3 | 0.61 nM |  | 3.1 nM |  |  |  |  | 5.8 nM | 20.9 nM | 19.5 nM | 10.4 nM | 58.1 nM | 8.4 mL/min/kg | 0.68 L/kg | 14 µM·h | 55.2 min | 107% | 49.2 µM·h | 13 µM | 30 min | O=C1N[C@@H]2COCC[C@@H]2Oc2ncc(F)cc2[C@H]2CCON2c2ccn3ncc1c3n2 [WX010B] | GI50 [14]: 4.26 nM
